One experiment has as its target T1, PI3K (p110α) (Homo sapiens, UniProt P42336).
T1 construct: purchased Cama Biosciences (sic; Carna Biosciences) #07CBS-0402A
Description: PI3K alpha biochemical assay (ADP Hunter Plus). As to conditions: internal data; read-out: PI3Kα IC50.

Experiment [1] has as its system TRF1 foci in CHA-9.3 mouse lung tumor cell line. Description: TRF1 foci immunofluorescence in CHA-9.3 cells. The experiment is classed as cell-based. As to conditions: for Inhibition of TRF1 foci (in words): 10 μM (GSK-2126458 1.0 μM), 24 h, CHA-9.3; for TRF1 levels as compared to bortezomib/DMSO-treated control cells: 10 μM plus bortezomib 50 nM, CHA 9-3.
Another experiment concerns CHA 9-3 cells. The experiment is described as follows: Multitelomeric signals (MTS) by Q-FISH on metaphase spreads. The experiment is classed as cell-based, mouse. The following applies: 10 μM, 24 h. The source says: Trf1 abrogation is known to lead to a persistent DDR at telomeres, and to induction of telomere-induced chromosomal aberrations[28]–[30]. Trf1 genetic deletion induces the so-called multitelomeric signals (MTS), a chromosomal aberration related to increased telomere fragility during DNA replication, [29]. […] To this end, we treated CHA 9-3 cells with either DMSO, the AKT inhibitor MK-2206 (AKTi) and the PI3K inhibitors ETP-47037 or ETP-47228. For detection of MTS, we performed quantitative fluorescence in situ hybridization (Q-FISH) analysis on metaphase spreads using a telomeric probe to visualize telomeres (“Methods” section). MTS are visualized by presenting a multi-dot pattern at chromosome ends in contrast to normal telomeres that show a single dot at each chromosome end.
Lung cancer-derived cell line (CHA-9-3) and immortalized P110α ^lox/lox MEFS were treated either with 10 µM of ETP-47037, ETP-47228, or AKTi (MK-2206) for 24 h. Q-FISH in metaphase spreads was performed as described above, but increasing the concentration of formamide in both the incubation and the washes to 70%.

Experiment [2] deals with PRAS40 (T246) and pS6 (S235/236) in CHA 9-3 cells. Description: Western blot of PI3K downstream targets PRAS40 (T246) and pS6 (S235/236). Format: cell-based, mouse. As to conditions: 10 μM. The method, then:
We also determined the effect of ETP-47037 and ETP-47228 in the inhibition of other PI3K downstream targets, PRAS40 (T246), and pS6 (S235/236)[64], [65] (Supplementary Fig. 1).
For detection of AKT, PRAS40 (T246) and pS6 in CHA9.3 cells, untreated control (DMSO) or treated with the indicated inhibitors, were lysed in RIPA buffer supplemented with 100 mM pefablock (Roche Diagnostics) and protease inhibitor cocktail (Roche Molecular Biochemicals). Proteins were resolved on 10% SDS-PAGE, and transferred to nitrocellulose membrane (Amersham^TM Protan^TM 0.2 µm nNC). Membranes were incubated with antibodies against phospho-AKT (Ser473), AKT, phospo-S6 (Ser 235/236), and S6Ribosomal from Cell Signaling, phospo-PRAS40 (Thr246) from BIOSURCE and anti α-tubulin form Sigma, overnight at 4 °C. After washing, blots were incubated with secondary antibody: Alexa Fluor 680 goat anti-rabbit IgG (Invitrogen) or anti-mouse IgG DyLight 800 conjugated (Thermo Scientific), and visualized using an Odyssey infrared imaging system (Li-Cor Biosciences).
Supplementary Figure 1. Modulation of PI3K/AKT downstream targets by ETP-47037 and ETP-47228. Representative Western blot images of PRAS40 phosphorylation at T246 and of P6 at S235/236 in CHIA 9-3 lung cancer cell line treated for 24 hours with 10 µM of ETP-47037 or with 10 µM of ETP-47228 at different time points of the treatment. […]

The test system of experiment [3] is panel of 24 kinases representing the human kinome. Description: ProQinase 24 kinase selectivity panel (whole panel). As to conditions: 1 µM. The experiment is classed as biochemical. The method, then:
The kinase selectivity of the inhibitors used here was ensured in order to discard potential off-targets effects contributing to the observed TRF1 modulation.
(§1) Supplementary Table 1: Kinase selectivity profile of ETP-47037 and ETP-47228 at 1 µM. Selectivity against protein kinases was determined from evaluation of compounds at 1µM in ProQinase’s 24 selected panel that represents the ACG, STE, TKL, TK, CMGC CAMK and CK1 kinase families.

The target in the next experiment is T2, AKT2 (Homo sapiens, UniProt P31751).
T2 construct: purchased ProQinase
The experiment is described as follows: ProQinase kinase panel. The experiment is classed as biochemical. The following applies: read-out: Inh (%) at 1µM, AKT2. As to the method: as §1

A further experiment deals with T3, CHK2 (Homo sapiens, UniProt O96017).
T3 construct: purchased ProQinase
The experiment is described as follows: ProQinase kinase panel. The experiment is classed as biochemical. The following applies: read-out: Inh (%) at 1µM, CHK2. As to the method: as §1

In another experiment the target is T4, FGF-R1 (Homo sapiens, UniProt P11362).
T4 construct: purchased ProQinase
The experiment is described as follows: ProQinase kinase panel. Format: biochemical. The following applies: read-out: Inh (%) at 1µM, FGF-R1. The method, then:
as §1

For the next experiment, the target named is T5, IGF1-R (Homo sapiens, UniProt P08069).
T5 construct: purchased ProQinase
Description: ProQinase kinase panel. Format: biochemical. As to conditions: read-out: Inh (%) at 1µM, IGF1-R. The method, then: as §1

The target of the next experiment is T6, INS-R (Homo sapiens, UniProt P06213).
T6 construct: purchased ProQinase
Description: ProQinase kinase panel. The experiment is classed as biochemical. As to conditions: read-out: Inh (%) at 1µM, INS-R. As to the method:
as §1

A further experiment concerns the target T7, JAK2 (Homo sapiens, UniProt O60674).
T7 construct: purchased ProQinase
The experiment is described as follows: ProQinase kinase panel. The experiment is classed as biochemical. As to conditions: read-out: Inh (%) at 1µM, JAK2. As to the method:
as §1

In another experiment the target is T8, MET (Homo sapiens, UniProt P08581).
T8 construct: purchased ProQinase
The experiment is described as follows: ProQinase kinase panel. As to conditions: read-out: Inh (%) at 1µM, MET. The experiment is classed as biochemical. The method, then: as §1

Another experiment has as its target T9, PDGFR-alpha (Homo sapiens, UniProt P16234).
T9 construct: purchased ProQinase
The experiment is described as follows: ProQinase kinase panel. The experiment is classed as biochemical. The following applies: read-out: Inh (%) at 1µM, PDGFR-alpha. As to the method: as §1

The next experiment addresses T10, PDK1 (Homo sapiens, UniProt O15530).
T10 construct: purchased ProQinase
The experiment is described as follows: ProQinase kinase panel. The experiment is classed as biochemical. The following applies: read-out: Inh (%) at 1µM, PDK1. As to the method:
as §1

In a further experiment the target is T11, VEGF-R2 (Homo sapiens, UniProt P35968).
T11 construct: purchased ProQinase
Description: ProQinase kinase panel. The following applies: read-out: Inh (%) at 1µM, VEGF-R2. Format: biochemical. As to the method:
as §1

For a further experiment, the system named is IPSCs. Details: method as in PMID 25971796. As to conditions: cited from earlier work.

T10 sequence (O15530 whole entry): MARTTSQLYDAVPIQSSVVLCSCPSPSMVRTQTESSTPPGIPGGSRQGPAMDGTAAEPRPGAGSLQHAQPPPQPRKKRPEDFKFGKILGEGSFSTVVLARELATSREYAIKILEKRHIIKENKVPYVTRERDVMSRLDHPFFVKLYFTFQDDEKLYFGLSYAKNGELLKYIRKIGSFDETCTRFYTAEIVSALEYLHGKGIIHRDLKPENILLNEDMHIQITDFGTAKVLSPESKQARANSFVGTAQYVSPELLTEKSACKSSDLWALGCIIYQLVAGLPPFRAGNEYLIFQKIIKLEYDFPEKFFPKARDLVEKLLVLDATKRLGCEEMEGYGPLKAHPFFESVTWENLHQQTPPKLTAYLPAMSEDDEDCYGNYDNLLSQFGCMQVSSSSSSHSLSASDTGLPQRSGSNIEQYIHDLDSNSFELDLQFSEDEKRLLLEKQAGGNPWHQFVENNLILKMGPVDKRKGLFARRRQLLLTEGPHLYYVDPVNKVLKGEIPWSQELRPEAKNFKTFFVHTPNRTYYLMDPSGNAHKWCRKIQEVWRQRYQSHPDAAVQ
T8 sequence (P08581 25-1390): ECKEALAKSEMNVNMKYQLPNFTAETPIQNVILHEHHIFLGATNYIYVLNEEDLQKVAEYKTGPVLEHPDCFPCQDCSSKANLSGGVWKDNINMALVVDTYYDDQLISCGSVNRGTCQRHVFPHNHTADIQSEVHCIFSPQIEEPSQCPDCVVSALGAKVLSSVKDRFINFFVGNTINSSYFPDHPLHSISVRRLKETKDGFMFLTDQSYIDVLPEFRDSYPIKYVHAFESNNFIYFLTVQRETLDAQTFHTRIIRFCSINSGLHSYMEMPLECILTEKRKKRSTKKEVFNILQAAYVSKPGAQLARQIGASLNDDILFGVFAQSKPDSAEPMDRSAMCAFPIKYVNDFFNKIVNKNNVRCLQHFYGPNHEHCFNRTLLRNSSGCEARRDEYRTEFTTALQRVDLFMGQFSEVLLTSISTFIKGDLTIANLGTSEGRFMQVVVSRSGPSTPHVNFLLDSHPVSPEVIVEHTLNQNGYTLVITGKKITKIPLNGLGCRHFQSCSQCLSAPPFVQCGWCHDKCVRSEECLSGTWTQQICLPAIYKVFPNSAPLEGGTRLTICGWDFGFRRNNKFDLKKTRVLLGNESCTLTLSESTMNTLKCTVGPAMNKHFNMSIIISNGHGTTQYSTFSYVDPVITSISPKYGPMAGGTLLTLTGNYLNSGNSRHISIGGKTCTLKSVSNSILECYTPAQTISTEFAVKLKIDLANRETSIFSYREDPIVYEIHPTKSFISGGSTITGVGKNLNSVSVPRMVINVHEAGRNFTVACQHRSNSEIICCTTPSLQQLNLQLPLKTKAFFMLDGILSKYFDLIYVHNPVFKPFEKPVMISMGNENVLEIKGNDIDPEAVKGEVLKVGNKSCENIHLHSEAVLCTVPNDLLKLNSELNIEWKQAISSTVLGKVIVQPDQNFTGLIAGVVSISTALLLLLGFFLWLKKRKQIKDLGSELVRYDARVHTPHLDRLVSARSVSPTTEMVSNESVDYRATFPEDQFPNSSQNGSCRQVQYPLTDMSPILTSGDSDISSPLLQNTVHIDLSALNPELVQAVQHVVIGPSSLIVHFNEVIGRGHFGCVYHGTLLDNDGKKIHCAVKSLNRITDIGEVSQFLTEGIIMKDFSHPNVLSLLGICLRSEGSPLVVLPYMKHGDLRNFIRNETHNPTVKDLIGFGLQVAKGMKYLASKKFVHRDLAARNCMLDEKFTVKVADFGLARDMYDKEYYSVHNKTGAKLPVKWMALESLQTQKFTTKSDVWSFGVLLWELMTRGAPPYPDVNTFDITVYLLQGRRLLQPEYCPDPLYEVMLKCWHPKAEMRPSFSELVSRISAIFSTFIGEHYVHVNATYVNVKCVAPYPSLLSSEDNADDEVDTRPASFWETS
T1 sequence (P42336 whole entry): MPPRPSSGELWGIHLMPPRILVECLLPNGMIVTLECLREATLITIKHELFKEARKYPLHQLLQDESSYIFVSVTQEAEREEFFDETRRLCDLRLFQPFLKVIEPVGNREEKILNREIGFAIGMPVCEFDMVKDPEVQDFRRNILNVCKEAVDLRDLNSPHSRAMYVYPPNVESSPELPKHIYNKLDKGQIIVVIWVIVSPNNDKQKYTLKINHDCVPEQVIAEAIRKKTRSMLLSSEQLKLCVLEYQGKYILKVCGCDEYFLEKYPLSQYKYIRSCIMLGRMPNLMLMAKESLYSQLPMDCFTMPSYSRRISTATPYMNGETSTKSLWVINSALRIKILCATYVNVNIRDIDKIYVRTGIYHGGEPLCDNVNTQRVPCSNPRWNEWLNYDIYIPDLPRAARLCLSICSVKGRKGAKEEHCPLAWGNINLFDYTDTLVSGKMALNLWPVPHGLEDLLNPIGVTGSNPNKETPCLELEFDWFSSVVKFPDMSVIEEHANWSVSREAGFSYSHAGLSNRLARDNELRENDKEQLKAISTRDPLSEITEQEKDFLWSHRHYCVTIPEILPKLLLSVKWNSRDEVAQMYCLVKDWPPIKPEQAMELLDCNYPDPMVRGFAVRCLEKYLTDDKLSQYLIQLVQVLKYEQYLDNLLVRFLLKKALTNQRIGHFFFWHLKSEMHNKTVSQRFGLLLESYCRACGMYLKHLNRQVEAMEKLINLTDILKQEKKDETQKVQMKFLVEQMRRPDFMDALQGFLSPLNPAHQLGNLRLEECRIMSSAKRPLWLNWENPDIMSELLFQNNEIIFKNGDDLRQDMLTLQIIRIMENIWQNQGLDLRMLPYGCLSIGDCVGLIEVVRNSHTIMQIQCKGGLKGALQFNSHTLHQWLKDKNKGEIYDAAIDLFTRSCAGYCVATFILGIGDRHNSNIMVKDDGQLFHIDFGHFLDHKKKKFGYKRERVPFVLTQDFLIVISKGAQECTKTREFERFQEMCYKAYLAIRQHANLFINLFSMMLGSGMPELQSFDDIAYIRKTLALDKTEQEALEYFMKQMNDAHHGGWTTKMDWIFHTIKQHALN
T1 sequence (P27986 whole entry partner): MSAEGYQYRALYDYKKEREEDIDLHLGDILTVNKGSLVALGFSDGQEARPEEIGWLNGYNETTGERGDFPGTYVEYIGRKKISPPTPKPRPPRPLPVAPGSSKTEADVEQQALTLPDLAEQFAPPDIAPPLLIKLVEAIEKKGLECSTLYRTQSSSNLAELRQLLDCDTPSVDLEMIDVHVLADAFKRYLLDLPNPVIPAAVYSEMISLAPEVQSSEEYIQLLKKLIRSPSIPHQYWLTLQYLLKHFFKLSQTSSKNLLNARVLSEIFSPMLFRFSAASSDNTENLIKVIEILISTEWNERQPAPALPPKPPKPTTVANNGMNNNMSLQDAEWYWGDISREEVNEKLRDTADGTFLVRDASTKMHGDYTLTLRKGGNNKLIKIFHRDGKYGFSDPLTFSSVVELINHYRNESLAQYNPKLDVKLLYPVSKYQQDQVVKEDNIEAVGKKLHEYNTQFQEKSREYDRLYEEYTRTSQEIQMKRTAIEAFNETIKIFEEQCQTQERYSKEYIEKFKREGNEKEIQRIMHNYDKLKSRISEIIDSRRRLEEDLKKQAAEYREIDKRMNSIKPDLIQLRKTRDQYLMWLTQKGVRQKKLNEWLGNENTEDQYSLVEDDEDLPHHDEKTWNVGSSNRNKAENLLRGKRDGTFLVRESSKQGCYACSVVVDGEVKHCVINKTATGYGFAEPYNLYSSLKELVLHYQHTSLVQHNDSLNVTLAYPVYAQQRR
T9 sequence (P16234 24-1089): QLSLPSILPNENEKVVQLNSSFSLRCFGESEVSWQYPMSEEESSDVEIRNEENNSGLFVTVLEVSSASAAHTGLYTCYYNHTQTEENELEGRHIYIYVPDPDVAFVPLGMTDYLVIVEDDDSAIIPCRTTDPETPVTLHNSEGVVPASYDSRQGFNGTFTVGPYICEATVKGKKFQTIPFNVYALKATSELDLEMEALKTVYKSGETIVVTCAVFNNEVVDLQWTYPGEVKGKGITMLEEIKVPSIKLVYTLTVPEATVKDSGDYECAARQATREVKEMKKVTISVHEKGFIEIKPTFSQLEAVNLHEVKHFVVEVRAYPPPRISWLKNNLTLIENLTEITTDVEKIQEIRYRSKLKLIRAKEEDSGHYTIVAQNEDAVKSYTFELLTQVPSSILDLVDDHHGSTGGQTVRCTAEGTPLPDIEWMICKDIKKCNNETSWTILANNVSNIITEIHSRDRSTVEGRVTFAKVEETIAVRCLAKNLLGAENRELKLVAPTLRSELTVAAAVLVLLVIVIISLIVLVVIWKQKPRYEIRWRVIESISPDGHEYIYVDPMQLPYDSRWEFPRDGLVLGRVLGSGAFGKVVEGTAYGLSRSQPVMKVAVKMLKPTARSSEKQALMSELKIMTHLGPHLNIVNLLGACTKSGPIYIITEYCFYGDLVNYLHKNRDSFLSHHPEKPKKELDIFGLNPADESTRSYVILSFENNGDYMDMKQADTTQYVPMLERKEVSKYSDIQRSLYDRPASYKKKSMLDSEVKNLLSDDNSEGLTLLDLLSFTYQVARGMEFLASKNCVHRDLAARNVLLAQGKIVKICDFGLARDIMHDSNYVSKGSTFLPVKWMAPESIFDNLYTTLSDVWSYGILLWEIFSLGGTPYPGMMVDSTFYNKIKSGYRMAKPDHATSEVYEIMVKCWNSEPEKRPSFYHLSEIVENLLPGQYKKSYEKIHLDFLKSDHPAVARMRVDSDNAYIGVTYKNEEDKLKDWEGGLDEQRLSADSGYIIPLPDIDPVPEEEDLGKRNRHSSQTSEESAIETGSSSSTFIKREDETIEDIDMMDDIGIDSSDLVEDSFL

`Cc1cnc2c(N3CCOCC3)nc(-c3ccc(NC(=O)Nc4ccc(C(=O)N5CCN(C)CC5)cc4)cc3)cn12` [ETP-47228]: at PI3K (p110α), the IC50 was 2.6 nM. Besides, the “Inhibition of TRF1 foci (in words)” value in [1] is recorded as “efficient inhibition of TRF1 foci”. Moreover, the “TRF1 levels as compared to bortezomib/DMSO-treated control cells” value in experiment [1] was “significantly lower”. For the same compound, in the experiment on CHA 9-3 cells, the “Frequency of MTS events per metaphase compared to DMSO” value is “significantly increased”. The “Inhibition of PI3K downstream targets PRAS40 (T246) and pS6 (S235/236) (in words)” value in [2] was “bona fide inhibitors of the PI3K/AKT axis”. In addition, the “Inhibition of any kinase of the 24 kinase panel (in words)” value in experiment [3] is given as “negligible inhibition of any kinase tested”. Further, the inhibition at 1 µM on AKT2 was -8%; at CHK2 it was 3%; on FGF-R1, -3.5%; on IGF1-R, -19%; on INS-R, -3%; at JAK2, 4%. The inhibition at 1 µM is 3% on MET, 1% at PDGFR-alpha, -9% on PDK1 and -3% at VEGF-R2. In addition, the “Formation of MTS in IPSCs” value in the experiment on IPSCs is listed as “induce formation of MTS”.

For the compound `CS(=O)(=O)N1CCN(Cc2cc3c(N4CCOCC4)nc(-c4cnc(N)nc4)cn3n2)CC1` [ETP-47037], the IC50 on PI3K (p110α) was found to be 0.99 nM. Further, the “Inhibition of TRF1 foci (in words)” value in experiment [1] is listed as “efficient inhibition of TRF1 foci”. For the same compound, the “TRF1 levels as compared to bortezomib/DMSO-treated control cells” value in [1] is “significantly lower”. The “Frequency of MTS events per metaphase compared to DMSO” value with CHA 9-3 cells is “significantly increased”. Besides, the “Inhibition of PI3K downstream targets PRAS40 (T246) and pS6 (S235/236) (in words)” value in [2] is given as “bona fide inhibitors of the PI3K/AKT axis”. Further, the “Inhibition of any kinase of the 24 kinase panel (in words)” value in experiment [3] is reported as “negligible inhibition of any kinase tested”. Further, the inhibition at 1 µM at AKT2 was -7.5%; at CHK2, 0.5%; on FGF-R1, 6.5%; on IGF1-R, 2%; at INS-R, 5%; on JAK2 it was 2%. Further, the inhibition at 1 µM on MET came out at 3%; at PDGFR-alpha, 4%; at PDK1, 7%; at VEGF-R2 it was 21.5%. For the same compound, the “Formation of MTS in IPSCs” value with IPSCs is “induce formation of MTS”.

(Values after publication PMC5668434, “Modulation of telomere protection by the PI3K/AKT pathway” (Nature Communications, 2017).)
